Numbers after ± are expanded uncertainties.
Details: Liquid, Ebulliometric method (Recirculating still)

Nc1ccccc1 [aniline]
vapor or sublimation pressure (450.25 K): 85 ± 1 kPa

CCCCCCC [heptane]
vapor or sublimation pressure (365.65 K): 85 ± 1 kPa

CO [methanol]
vapor or sublimation pressure (333.15 K): 85 ± 1 kPa

CCCCO [butan-1-ol]
vapor or sublimation pressure (385.75 K): 85 ± 1 kPa
